According to patent publication US12692256B2, “Salts and crystalline forms of a TAAR1 agonist” (Hoffmann-La Roche Inc., priority 2020, dated 2026):
Entries after “also recorded” stand apart in the source; their conditions may differ. Where a name gives a salt, the structure may show the parent alone.

What was measured:
[1] = Dynamic Vapour Sorption (DVS) hygroscopicity; type: physicochemical; details: for Hygroscopicity: increase in mass when relative humidity is raised from 0%-RH to 90%-RH at 25° C.; for Hygroscopicity, weight increase: 0%-RH to 90%-RH at 25° C.
Method: For each salt formation experiment 5-ethyl-4-methyl-N-[4-[(2S) morpholin-2-yl]phenyl]-1H-pyrazole-3-carboxamide (approx. 450 mg) was dissolved in dioxane (approx. 90 mL) at elevated temperature (approx. 90° C.) in a 100 mL glass vial. The clear solution was then cooled to 60° C. (to approx. 40° C. for adipic acid) prior to the addition of approx. 1.1 equivalents (approx. 0.55 equivalents for sulfuric acid) of a 0.5 M (0.2 M for fumaric acid) stock solution in dioxane of the respective acid under agitation. The reaction mixture was then allowed to reach ambient temperature passively and further agitated overnight. In the cases of adipic acid, the solvent was partially evaporated at this stage to increase the yield. The solid residue was collected by filtration and rinsed with approx. 2 mL of dioxane. A sample of the wet product was analyzed by XRPD. The remainder of the product was dried in a vacuum tray dryer at 50° C./<10 mbar for 2 days prior to analysis by XRPD, DSC, TGA, and, if appropriate, also by DVS.
Moisture sorption/desorption data were collected on a DVS Advantage, a DVS Adventure, or a DVS Intrinsic (SMS Surface Measurements Systems) moisture balance system. The sorption/desorption isotherms were measured stepwise in a range from 0%-RH to 90%-RH at typically 25° C. A weight change of typically <0.001%/min was chosen as criterion to switch to the next level of relative humidity (with a maximum equilibration time of typically 24 hours, if the weight change criterion was not met). The data were corrected for the initial moisture content of the samples by taking the weight after drying of the samples at 0%-RH as zero point. The hygroscopicity of a given substance is characterized (by close analogy with the European Pharmacopoeia) by the increase in mass when the relative humidity is raised from 0%-RH to 90%-RH at 25° C.: […]

Aqueous solubility = type: physicochemical
Method: Aqueous solubility was determined by suspending sufficient compound in water water to give a maximum final concentration of 100 mg/mL. The solution was stirred for 24 hours at room temperature (25° C.±5° C.) on a magnetic stirrer using a magnetic stir bar. The final pH of the suspension was measured after 24 hours with a standard pH meter. The suspension was filtered by centrifugation through a ≤0.45 μm PVDF filter. The filtrate was then diluted 1:500 using a solution of ethanol: water (1:1). Quantification was by HPLC using a previously developed HPLC method (Table 4). A standard curve with a concentration range from 0.001 mg/mL-0.3 mg/ml. The solubility was automatically calculated using the peak area of the main peak in the chromatogram.
Aqueous solubility was determined by suspending sufficient compound in water to give a maximum final concentration of ≥10 mg/mL of the parent free-form of the compound. The suspension was equilibrated at 25° C. for 24 hours then the pH was measured. The suspension was then filtered through a glass fibre C filter. The filtrate was then diluted by an appropriate factor e.g. 101. Quantitation was by HPLC with reference to a standard solution of approximately 0.25 mg/mL in DMSO. Different volumes of the standard, diluted and undiluted sample solutions were injected. […]

[2] = crystalline Form A, between 0-90% RH

| SMILES | Hygroscopicity ([1]; crude salt forms) | Hygroscopicity, weight increase ([1]; re-crystallized salt forms) | Hygroscopicity ([1]; re-crystallized salt forms) | also measured |
| --- | --- | --- | --- | --- |
| CCc1[nH]nc(C(=O)Nc2ccc([C@H]3CNCCO3)cc2)c1C [Glycolic acid, 5-ethyl-4-methyl-N-[4-[(2S)morpholin-2-yl]phenyl]-1H-pyrazole-3-carboxamide] | Very hygroscopic; also recorded: (deliquescent) (deliquescent: sufficient water is adsorbed to form a liquid) | – | – | – |
| CCc1[nH]nc(C(=O)Nc2ccc([C@H]3CNCCO3)cc2)c1C [p-Toluenesulfonic acid, 5-ethyl-4-methyl-N-[4-[(2S)morpholin-2-yl]phenyl]-1H-pyrazole-3-carboxamide] | – | (<0.1%-m/m | Non-hygroscopic | – |
| CCc1[nH]nc(C(=O)Nc2ccc([C@H]3CNCCO3)cc2)c1C [Hydrochloric acid, 5-ethyl-4-methyl-N-[4-[(2S)morpholin-2-yl]phenyl]-1H-pyrazole-3-carboxamide] | – | (<0.1%-m/m | Non-hygroscopic | Hygroscopicity, weight increase ([1]; crude salt forms): (0.5%-m/m weight |
| CCc1[nH]nc(C(=O)Nc2ccc([C@H]3CNCCO3)cc2)c1C [L(+)-Tartaric acid, 5-ethyl-4-methyl-N-[4-[(2S)morpholin-2-yl]phenyl]-1H-pyrazole-3-carboxamide] | – | (0.4%-m/m | – | – |
| CCc1[nH]nc(C(=O)Nc2ccc([C@H]3CNCCO3)cc2)c1C [Adipic acid, 5-ethyl-4-methyl-N-[4-[(2S)morpholin-2-yl]phenyl]-1H-pyrazole-3-carboxamide] | – | (0.2%-m/m | – | – |
| CCc1[nH]nc(C(=O)Nc2ccc([C@H]3CNCCO3)cc2)c1C [Phosphoric acid, 5-ethyl-4-methyl-N-[4-[(2S)morpholin-2-yl]phenyl]-1H-pyrazole-3-carboxamide] | – | (0.2%-m/m | – | – |
| CCc1[nH]nc(C(=O)Nc2ccc([C@H]3CNCCO3)cc2)c1C [Sulfuric acid, 5-ethyl-4-methyl-N-[4-[(2S)morpholin-2-yl]phenyl]-1H-pyrazole-3-carboxamide] | – | (0.1%-m/m | Non-hygroscopic | – |
| CCc1[nH]nc(C(=O)Nc2ccc([C@H]3CNCCO3)cc2)c1C [Citric acid, 5-ethyl-4-methyl-N-[4-[(2S)morpholin-2-yl]phenyl]-1H-pyrazole-3-carboxamide] | Very hygroscopic; also recorded: (deliquescent) (deliquescent: sufficient water is adsorbed to form a liquid) | – | – | – |
| CCc1[nH]nc(C(=O)Nc2ccc([C@H]3CNCCO3)cc2)c1C [Methanesulfonic acid, 5-ethyl-4-methyl-N-[4-[(2S)morpholin-2-yl]phenyl]-1H-pyrazole-3-carboxamide] | Hygroscopic | – | – | phase transformation (relative humidity) ([1]; crude salt form, at 25° C.): at >80%-RH at; Hygroscopicity, weight increase ([1]; crude salt forms): (8.5%-m/m weight |
| CCc1[nH]nc(C(=O)Nc2ccc([C@H]3CNCCO3)cc2)c1C [5-ethyl-4-methyl-N-[4-[(2S)morpholin-2-yl]phenyl]-1H-pyrazole-3-carboxamide, mono hydrochloric acid salt] | – | – | – | relative humidity at which rate of water uptake was observed to increase ([1]; crystalline Form A): > 80 % RH; hysteresis (DVS) [1, 2]: no hysteresis; mass uptake (DVS) [1, 2]: < 0.1%; pH of saturated aqueous solution (Aqueous solubility; saturated aqueous solution after 24 hours): 5.3; solubility at 24 h (Aqueous solubility; water, thermodynamic from solid, saturated aqueous solution, 24 hours at 25° C., pH 5.3): 52.8 mg/mL |
